# Like-named read-outs stand apart in the source and are kept apart here.
# Tests used:
# Tlp3^LBD D196A = Tlp3^LBD D196A (Campylobacter jejuni, UniProt Q0P864, D196A); assay: biochemical
# Tlp3 [1] = biological target: Tlp3 (Campylobacter jejuni, UniProt Q0P864); assay: biochemical; format: binding
# Protocol: His-tagged proteins (Tlp2, -3, and -4) were prepared as previously described ([11]) DNA segments encoding the periplasmic sensory domains (33 to 286 amino acids) of Tlp2 and (38 to 297 amino acids) of Tlp4 were amplified (see Table S7), ligated into pGEM-T Easy (Promega) and subcloned into pET-19b (Novagen) (see Table S6). Recombinant proteins were expressed in E. coli BL21(DE3) using 1 mM IPTG (isopropyl-β-D-thiogalactopyranoside) and purified using His-select-nickel chromatography as described previously ([8], [11]). […] Protein concentrations were determined using a NanoDrop spectrophotometer (Thermo Fisher).
# Surface plasmon resonance (SPR) experiments were performed as described previously ([10], [11]) with the following modifications. […] All ligands were prepared in PBS (pH 7.2) and serially diluted from 0.2 to 0.0125 mM. A 10-min dissociation period was allocated after the introduction of each analyte. SPR experiments were performed in single-cycle kinetics mode using the BIAcore S200 biosensor system (Cytiva) at 25°C in PBS (pH 7.2) at a flow rate of 30 μL/min. The equilibrium dissociation constant (KD) for each analyte was determined using BIAcore S200 Evaluation software with a report point 4 s after the injection stop to account for the bulk transfer of the small molecule against a large amount of immobilized protein (as shown in Fig. S5).
# WT Tlp3^LBD = assay: SPR competition assay (A-B-A inject); format: binding, Campylobacter jejuni; conditions: 15 seconds after injection-B; glucose 300 µM, fucose 300 μM, malic acid 200 μM
# Protocol: . Competition A-B-A analyses determine the specificity of the potential ligand-binding site preferences of WT Tlp3^LBD. The bound protein is saturated with the first analyte (A), followed by the introduction of a second analyte (B); the assay is designed to show whether a cumulative response is observed after the second analyte (B) is added. A cumulative response indicates two independent binding sites, whereas the lack of a cumulative response indicates a single site where ligands compete for binding, i.e., when analyte A occupies a ligand binding site, analyte B cannot bind. […] All response data were normalized to a 100-Da molecular weight for each analyte, allowing direct comparison of the responses. Both actual RU values and theoretical values are recorded for comparison.
# Figure S6. […] A) Injections are […]
# at 300 μM for 60 seconds). Final responses units (RU) of injections are recorded (indicated by dashed vertical […]
# 81 at 15 s econds after injection- B and l fu cose […]
# and fucose were compet ed was 4.4 RU ± 0.46. As this value sits be low 5 RU, it indicates direct competition for […]
# Final respons es units (RU) of injections ar e re cor ded (indicated […]
# As this value sits between
# 5.07- 13.5 RU, it indicates direct competition for the same site with glucos e replacing some of the bound malic acid during the 60 second injection- B.
# Δtlp2,4 mutant = format: cell-based; conditions: P < 0.05
# Tlp3 [2] = test system: Tlp3; set-up: method as in PMID 24391495; conditions: cited from earlier work
# Tlp4 = format: cell-based, C. jejuni 11168-O; conditions: nutrient-depleted chemotaxis assay
# Protocol: (§1) The biological relevance of the binding specificities of the Tlp2,3,4 cluster was assessed by examining chemotactic responses of C. jejuni 11168-O tlp2, tlp3, and tlp4 wild-type (WT) and mutant strains using a nutrient-depleted chemotaxis assay. All ligands, with the exception of lysine and cysteine, interacted with Tlp2 and Tlp4 as attractants (Table 1), showing an ~1- to ~2-log decrease (P < 0.05) in migration toward the ligand compared to the WT strain.
# (§2) Chemotaxis assays—the nutrient-depleted chemotaxis assay and the modified hard agar plug assay (tHAP)—were performed as previously described ([11], [34]). The chemotactic responses of all isogenic strains were compared to that of the C. jejuni 11168-O wild-type strain to distinguish between chemoattractants and chemorepellents. For the nutrient-depleted chemotaxis and modified hard agar plug (tHAP) assays, all differences were calculated as changes on a log10 scale. Controls were provided by using nonmotile (C. jejuni 81116 flaAB) and nonchemotactic (C. jejuni NCTC 11168 cheY) mutants ([69]) and mucin as negative and positive controls ([10]).
# Tlp3 [3] = format: cell-based, C. jejuni 11168-O; conditions: for Tlp3 CR (chemoresponse): chemotaxis of mutant compared to WT strain
# Protocol: as §1, §2
# Tlp2 = format: cell-based, C. jejuni 11168-O; conditions: for chemotactic response via Tlp2: nutrient-depleted chemotaxis assay
# Protocol: as §1, §2
# Δtlp2,3,4 triple mutant = format: cell-based; conditions: P < 0.05
# Δtlp2,3 mutant = format: cell-based; conditions: P < 0.05
# Δtlp3,4 mutant = format: cell-based
# Sequence of Tlp3 (Campylobacter jejuni, UniProt Q0P864) (Q0P864 entry or part of it): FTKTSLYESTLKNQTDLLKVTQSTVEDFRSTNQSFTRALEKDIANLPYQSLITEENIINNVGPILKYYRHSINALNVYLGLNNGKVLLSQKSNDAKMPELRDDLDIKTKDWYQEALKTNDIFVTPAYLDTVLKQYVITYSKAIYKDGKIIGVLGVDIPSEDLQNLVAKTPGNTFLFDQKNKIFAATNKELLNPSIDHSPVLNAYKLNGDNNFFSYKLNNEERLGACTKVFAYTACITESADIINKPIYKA
# Sequence of Tlp3^LBD D196A (Q0P864 41-290 D196A): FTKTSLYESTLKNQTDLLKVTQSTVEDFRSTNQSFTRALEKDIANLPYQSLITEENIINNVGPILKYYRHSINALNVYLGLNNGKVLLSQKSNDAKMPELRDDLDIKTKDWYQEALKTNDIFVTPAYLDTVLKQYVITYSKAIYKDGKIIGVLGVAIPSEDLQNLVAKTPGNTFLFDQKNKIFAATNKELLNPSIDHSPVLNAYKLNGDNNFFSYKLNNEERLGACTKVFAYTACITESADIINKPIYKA
Structure (SMILES),Kd (Tlp3^LBD D196A),Kd (Tlp3 [1]),SPR response of single analyte (WT Tlp3^LBD),"cell migration toward ligand decreased, Δtlp2,4 mutant (Δtlp2,4 mutant)",chemotactic response via Tlp3 (Tlp3 [2]),chemotactic response via Tlp4 (Tlp4),Tlp3 CR (chemoresponse) (Tlp3 [3]),Tlp2 CR (chemoresponse) (Tlp2; chemotaxis of mutant compared to WT strain),"increase in migration (Tlp2) (Tlp2; compared to the WT strain, P < 0.05)",chemotactic response via Tlp2 (Tlp2),"increase in cell migration, Δtlp2,3,4 triple mutant (Δtlp2,3,4 triple mutant)","cell migration toward ligand increased, Δtlp2,3 mutant (Δtlp2,3 mutant)","cell migration toward ligand, Δtlp3,4 mutant (Δtlp3,4 mutant)",chemotactic response via Tlp3 (Tlp3 [3]; nutrient-depleted chemotaxis assay)
C[C@H](O)[C@@H](O)[C@@H](O)[C@H](O)C=O [Fucose],41.9 ± 13.2 µM,25.2 ± 6.5 µM,9.86 RU,,,,,,,,,,,
NCCCC[C@H](N)C(=O)O [Lysine],16.1 ± 9.1 µM,4.3 ± 1.6 µM,,1.1 log,repellent,attractant,R,R,1.4 log,repellent,1.5 log,1.8 log,no change in migration,
CC(=O)N[C@H]1[C@H]([C@H](O)[C@H](O)CO)OC(O)(C(=O)O)C[C@@H]1O (stereo partly drawn) [Sialic acid],36.8 ± 3 µM,9 ± 0.2 µM,,,,attractants,R,,,attractants,,,,repellents
